In US6749864B2, “Stabilized pharmaceutical composition” (Takeda Chemical Industries, Ltd., priority 1986, dated 2004):

Columns and labels:
[1] = Storage of granules of different benzimidazole compounds with heavy magnesium carbonate or lactose, changes in appearance (Experimental Example 2); format: physicochemical; design: key to Changes in appearance after 1 week at 50° C. and 75% RH: −: No changes; ++: Severely; settings: for Changes in appearance after 1 week at 50° C. and 75% RH: granules as in Example 5; for stability of the pharmaceutical compositions of the invention: granules with heavy magnesium carbonate, 50° C. and 75% RH, 1 week
Description: Granules were produced in the same manner as in Example 5 except that the compound (A), the compound (C), the compound (D), omeprazole or timoprazole was used instead of the compound (B). […] As a control to each composition, granules were also produced in the same manner except that lactose was used instead of heavy magnesium carbonate and stored under the same conditions.

[2] = Control: lactose instead of heavy magnesium carbonate
[3] = Invention: additive heavy magnesium carbonate

SMILES: Cc1c(OCC(F)(F)C(F)(F)F)ccnc1C[S+]([O-])c1nc2ccccc2[nH]1 (stereo not shown) [Compound (A), 2-[[3-methyl-4-(2,2,3,3,3-pentafluoropropoxy)-2-pyridyl]methyl-sulfinyl]benzimidazole]
- Changes in appearance after 1 week at 50° C. and 75% RH [1, 2]: ++
- Changes in appearance after 1 week at 50° C. and 75% RH [1, 3]: −
- stability of the pharmaceutical compositions of the invention [1]: stable
- melting point: 161 to 163 °C (dec.)

SMILES: COc1ccc2nc([S+]([O-])Cc3ncc(C)c(OC)c3C)[nH]c2c1 (stereo not shown) [Omeprazole, 5-Methoxy-2-[(4-methoxy-3,5-dimethyl-2-pyridyl)methylsulfinyl]benzimidazole]
- Changes in appearance after 1 week at 50° C. and 75% RH [1, 2]: ++
- Changes in appearance after 1 week at 50° C. and 75% RH [1, 3]: −
- stability of the pharmaceutical compositions of the invention [1]: stable

SMILES: [O-][S+](Cc1ccccn1)c1nc2ccccc2[nH]1 (stereo not shown) [Timoprazole, 2-[(2-Pyridyl)methylsulfinyl]benzimidazole]
- Changes in appearance after 1 week at 50° C. and 75% RH [1, 2]: ++
- Changes in appearance after 1 week at 50° C. and 75% RH [1, 3]: −
- stability of the pharmaceutical compositions of the invention [1]: stable
